SMILES strings stand for the structures. Activity calls are given as the source filed them. The calls are words filed in the database; no cut-off is given here.

The subject of the first experiment is HT-29. The experiment is described as follows: Compound tested for cytotoxicity against human cancer cell line (HT-29 colon); Inactive. In kind it is functional, cell-based.
Conditions: not given
On to `COCCn1c(CCl)nc2c(OC)c3c(=O)n(CCOC)c(CCl)nc3c(OC)c2c1=O`, for which the IA result is “inactive”.

Take `COCCCn1c(CCl)nc2c(OC)c3c(=O)n(CCCOC)c(CCl)nc3c(OC)c2c1=O`: the IA entry was “inactive”.

The next experiment relates to OVCAR-3. Kind of experiment: Compound tested for cytotoxicity against human cancer cell line (Ovcar 3 ovarian). It counts as functional. Conditions: read-out: LC50 (the source's name).
Consider `Cn1c(CCl)nc2cc3c(=O)n(C)c(CCl)nc3cc2c1=O`, for which the CC50 turned out to be 2000 nM.

For `Oc1nc(CBr)nc2cc3c(O)nc(CBr)nc3cc12`, the CC50 is 850 nM.

A further experiment has as its system WiDr. Kind of experiment: Compound tested for cytotoxicity against human cancer cell line (WiDr Colon). Conditions: read-out: LC50 (the source's name). In kind it is functional.
Consider `Cn1c(CCl)nc2cc3c(=O)n(C)c(CCl)nc3cc2c1=O`, for which the CC50 amounted to 350 nM.

For the compound `Oc1nc(CCl)nc2cc3c(O)nc(CCl)nc3cc12`, the CC50 worked out at 5000 nM.

On to `Oc1nc(CBr)nc2cc3c(O)nc(CBr)nc3cc12`, for which the CC50 was determined as 900 nM.

For another experiment, the system named is HT-29. Kind of experiment: Compound tested for cytotoxicity against human cancer cell line (HT-29 colon). It counts as functional.
Conditions: not given
`COc1c2nc(CCl)n(C)c(=O)c2c(OC)c2nc(CCl)n(C)c(=O)c12` showed an LC50 (50% lethal concentration) of 110 nM.

In the case of `CCCn1c(CCl)nc2cc3c(=O)n(CCC)c(CCl)nc3cc2c1=O`, the LC50 (50% lethal concentration) is 800 nM.

`CC(=O)Oc1nc2cc3c(=O)n(C)c(OC(C)=O)nc3cc2c(=O)n1C` registered an LC50 (50% lethal concentration) of 19000 nM.

On to `COc1c2nc(CCl)n(C)c(=O)c2c(OC)c2c(=O)n(C)c(CCl)nc12`, for which the LC50 (50% lethal concentration) was found to be 6330 nM.

With `Cn1c(CBr)nc2cc3c(=O)n(C)c(CBr)nc3cc2c1=O`, the LC50 (50% lethal concentration) was 280 nM.

For the origin of these results see ChEMBL document CHEMBL1135678, “Pyrimidoquinazoline-based antitumor agents. Design of topoisomerase II to DNA cross-linkers with activity against protein kinases” (2002).
